The values below come from paper PMC5533163 (Medicines, 2015).

Read-outs that look alike come from different tables or passages of the source.

Data set [1] has as its target T1, CYP2C9 (Homo sapiens, UniProt P11712).
T1 construct: purchased BD Gentest (Woburn, MA, USA)
Kind of data set: Reversible inhibition of recombinant CYP2C9. To be noted: recombinant enzyme, 100–0.4 µM, data not shown. In kind it is in vitro ADME. Here is the method: (§1) The assay conditions for determining reversible and time dependent inhibition of CYPs were similar as reported earlier. Test samples or positive controls were serially diluted in a solution (100 µL) of cofactors mix, control protein (0.05 mg of protein/mL) and Glucose-6-phosphate dehydrogenase (G6PDH) to achieve six concentrations (100–0.4 µM). To account for any inherent fluorescence, the plates were incubated at 37 °C for 10 min and fluorescence readings were taken. Enzyme substrate mixture (100 µL) was added to initiate the reaction and the plates were further incubated for 15 (CYP1A2), 30 (CYP3A4, 2C9 and 2C19) or 45 min (CYP2D6). The reaction was stopped by the addition of 75 µL of acetonitrile/0.5M Tris base (80:20). Fluorescence was measured on Spectramax M5 plate reader (Molecular Devices, Sunnyvale, CA, USA) at specified excitation and emission wavelengths for each substrate. IC50 values (co-incubation assay) were obtained from concentration-response curves generated by plotting log concentration versus % control.

The target in data set [2] is T2, CYP2C19 (Homo sapiens, UniProt P33261).
T2 construct: purchased BD Gentest (Woburn, MA, USA)
Description: Reversible inhibition of recombinant CYP2C19. Type of data set: in vitro ADME. To be noted: recombinant enzyme, 100–0.4 µM, data not shown. As for the experimental part:
as §1

The target of data set [3] is T3, CYP1A2 (Homo sapiens, UniProt P05177).
T3 construct: purchased BD Gentest (Woburn, MA, USA)
Description: Inhibition of recombinant CYP1A2. In kind it is in vitro ADME. To be noted: recombinant enzyme.
Description: (§2) The reaction was terminated and fluorescence was measured as described above. IC50 values (pre-incubation assay) were obtained as above. The IC50 shift fold was calculated as the ratio of IC50 (co-incubation)/IC50 (pre-incubation).

In data set [4] the target is T4, P-gp (Homo sapiens, UniProt P08183).
T4 construct: host or cells: hMDR1-MDCK-II (canine kidney cells transfected with human MDR1)
Description: P-gp inhibition, calcein-AM uptake in hMDR1-MDCK-II and MDCK-II cells. To be noted: calcein-AM 1 µM, mean ± SD of three experiments. In kind it is cell-based.
Description: MDCK-II and hMDR1-MDCK-II cells were seeded in 96-well plates at 70,000 cells/well in 200 µL of culture medium. The medium was changed at 24 h after seeding and the assay was performed 48 h later. Test samples and positive control at various concentrations (100–0.4 µM) were added to the cells in 50 µL of transport buffer and incubated at 37 °C for 10 min. […] The % increase in calcein-AM uptake was calculated as described earlier [18].

For data set [5] the following is noted: humans, cited from earlier work.
For data set [6], the target named is T5, CYP3A4 (Homo sapiens, UniProt P08684). Kind of data set: Reversible (co-incubation) and time dependent (pre-incubation) inhibition of recombinant CYP3A4, fluorescent substrate BFC. Type of data set: in vitro ADME. The arrangement: purchased BD Gentest (Woburn, MA, USA). To be noted: based on IC50 shift ratio criterion > 1.5.
Description: as §2
Data set [7] addresses T6, CYP2D6 (Homo sapiens, UniProt P10635). Description: Reversible (co-incubation) and time dependent (pre-incubation) inhibition of recombinant CYP2D6, fluorescent substrate AMMC. Type of data set: in vitro ADME. Further details: purchased BD Gentest (Woburn, MA, USA). To be noted: for IC50: recombinant enzyme, mean ± SD of three experiments.
The target in data set [8] is T5, CYP3A4. In kind it is in vitro ADME. To be noted: Lineweaver-Burk plot, testosterone metabolism. Further details: The reaction was initiated by the addition of HLM (0.6 mg/mL protein); tissue Corning Life Sciences (Cambridge, MA, USA); host or cells: pooled human liver microsomes, 25 donors, mixed gender.
Description: (§3) The incubation mixture (250 µL) consisted of NADPH regeneration system (NADP^+, glucose-6-phosphate, and G6PDH) in 0.1M potassium phosphate buffer (pH 7.4). […] The reaction was initiated by the addition of HLM (0.6 mg/mL protein). After further incubation of 30 min (for CYP3A4) or 20 min (for CYP2D6) at 37 °C, reaction was terminated by addition of ice-cold acetonitrile containing 5 μL corticosterone (internal standard for CYP3A4, 20 µM) or 5 μL niflumic acid (internal standard for CYP2D6, 1 µM). The mixture was centrifuged at 10,000 rpm for 5 min and the supernatant (200 μL) was transferred into vials for HPLC (CYP3A4) or UHPLC (CYP2D6) analysis. IC50 values were obtained from concentration-response curves generated by plotting log concentration versus % of control by using GraphPad Prism 6 (La Jolla, CA, USA).
(§4) The type of inhibition (competitive or non-competitive) was predicted by Lineweaver-Burk Plot (velocity^−1 vs. substrate^−1). Apparent inhibition constant (Ki) was calculated from the x-intercept of the Dixon plot (slope of the primary plot vs. inhibitor concentration), which was fitted by liner regression using GraphPad Prism 6 (La Jolla, CA, USA).
The target of data set [9] is T6, CYP2D6. Description: Reversible inhibition and enzyme kinetics of CYP2D6 in pooled HLM (dextromethorphan to dextrorphan). Type of data set: in vitro ADME. The arrangement: The reaction was initiated by the addition of HLM (0.6 mg/mL protein); tissue Corning Life Sciences (Cambridge, MA, USA); host or cells: pooled human liver microsomes, 25 donors, mixed gender. To be noted: for Type of inhibition of CYP2D6 in HLM: Lineweaver-Burk plot.
Description: as §3, §4
The quantification of dextromethorphan, dextrorphan and niflumic acid (internal standard) was done by using Agilent LC-quadrupole time-of-flight (QToF) (model 6230)-mass spectrometry (Agilent Technologies, Palo Alto, CA, USA). The UHPLC system consisted of a binary pump, autosampler, degasser, and a column compartment. The mass detector was equipped with an electron spray ionization interface, which was connected to Agilent MassHunter Work Station (B.05.00). Dextromethorphan and dextrorphan were analyzed using an Agilent Zorbax SB-C8 RRHD column (100 mm × 2.1 mm I.D., 1.8 µm). A column temperature of 35 °C and sample temperature of 15 °C were maintained during analysis. The mobile phase consisted of water (A) and Acetonitrile (B), both containing 0.1% formic acid, which were applied in the following linear gradient elution: 0 min, 80%A: 20%B in next 10 min to 30%A: 70%B and in next 2 min to 100% B, at a flow rate of 0.2 mL/min. Separation was followed by a 2 min washing procedure with 100% B and re-equilibration period of 3.0 min. The total run time for analysis was 10 min. The injection volume was 2 µL. […] The LOD and LOQ of dextromethorph and dextrorphan, were 10 ng/mL and 5 ng/mL, respectively.

T6 sequence (P10635 whole entry): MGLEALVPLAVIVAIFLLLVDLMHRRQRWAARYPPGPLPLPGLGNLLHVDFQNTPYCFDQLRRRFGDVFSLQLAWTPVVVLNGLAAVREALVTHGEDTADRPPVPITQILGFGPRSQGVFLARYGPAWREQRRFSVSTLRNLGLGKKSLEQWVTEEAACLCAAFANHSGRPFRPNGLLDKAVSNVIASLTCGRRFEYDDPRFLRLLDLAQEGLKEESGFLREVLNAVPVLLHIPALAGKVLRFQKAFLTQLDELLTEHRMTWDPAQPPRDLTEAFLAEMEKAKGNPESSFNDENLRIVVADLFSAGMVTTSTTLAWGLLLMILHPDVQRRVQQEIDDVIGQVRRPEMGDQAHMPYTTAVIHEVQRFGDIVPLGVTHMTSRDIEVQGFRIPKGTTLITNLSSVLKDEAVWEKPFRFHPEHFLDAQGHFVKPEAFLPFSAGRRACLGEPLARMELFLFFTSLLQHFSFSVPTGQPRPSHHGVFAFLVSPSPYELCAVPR
T5 sequence (P08684 whole entry): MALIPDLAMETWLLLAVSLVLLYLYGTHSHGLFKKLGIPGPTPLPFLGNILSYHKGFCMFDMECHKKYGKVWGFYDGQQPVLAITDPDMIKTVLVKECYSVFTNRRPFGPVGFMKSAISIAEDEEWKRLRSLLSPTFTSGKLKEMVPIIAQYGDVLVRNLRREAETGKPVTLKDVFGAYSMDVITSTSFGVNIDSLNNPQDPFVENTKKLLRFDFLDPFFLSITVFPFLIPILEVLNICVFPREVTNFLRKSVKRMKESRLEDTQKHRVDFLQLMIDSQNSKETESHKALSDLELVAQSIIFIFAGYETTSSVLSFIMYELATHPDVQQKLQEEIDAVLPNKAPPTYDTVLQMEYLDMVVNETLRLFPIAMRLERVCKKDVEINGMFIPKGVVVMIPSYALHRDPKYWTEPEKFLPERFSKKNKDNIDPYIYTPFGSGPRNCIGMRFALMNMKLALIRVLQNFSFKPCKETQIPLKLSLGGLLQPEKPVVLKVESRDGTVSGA
T1 sequence (P11712 whole entry): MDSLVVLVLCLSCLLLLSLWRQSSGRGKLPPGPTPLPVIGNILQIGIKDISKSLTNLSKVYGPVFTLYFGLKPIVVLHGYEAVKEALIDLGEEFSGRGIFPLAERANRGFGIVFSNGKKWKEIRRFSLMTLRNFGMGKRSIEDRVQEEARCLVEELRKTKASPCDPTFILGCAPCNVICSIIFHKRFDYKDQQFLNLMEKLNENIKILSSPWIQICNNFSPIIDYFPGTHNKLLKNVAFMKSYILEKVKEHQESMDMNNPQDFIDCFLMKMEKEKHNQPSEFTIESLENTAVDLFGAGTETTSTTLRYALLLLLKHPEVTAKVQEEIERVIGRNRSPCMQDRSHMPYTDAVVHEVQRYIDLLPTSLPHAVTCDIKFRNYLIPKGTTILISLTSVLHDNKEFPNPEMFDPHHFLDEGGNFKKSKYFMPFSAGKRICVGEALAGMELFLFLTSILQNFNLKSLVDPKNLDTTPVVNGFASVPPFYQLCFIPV
T2 sequence (P33261 whole entry): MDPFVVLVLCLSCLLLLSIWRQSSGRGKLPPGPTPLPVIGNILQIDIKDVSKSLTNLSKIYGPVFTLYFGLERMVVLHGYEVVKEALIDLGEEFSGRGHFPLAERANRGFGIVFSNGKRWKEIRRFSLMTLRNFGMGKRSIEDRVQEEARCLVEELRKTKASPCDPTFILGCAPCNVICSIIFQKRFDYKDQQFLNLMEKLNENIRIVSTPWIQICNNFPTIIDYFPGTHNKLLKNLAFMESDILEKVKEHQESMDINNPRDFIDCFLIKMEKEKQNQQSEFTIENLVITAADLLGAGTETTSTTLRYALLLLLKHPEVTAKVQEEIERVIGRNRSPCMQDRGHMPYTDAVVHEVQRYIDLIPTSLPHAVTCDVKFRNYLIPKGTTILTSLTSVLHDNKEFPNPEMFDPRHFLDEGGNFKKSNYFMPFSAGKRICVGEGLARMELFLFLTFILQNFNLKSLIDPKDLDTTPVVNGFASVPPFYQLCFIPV
T4 sequence (P08183 whole entry): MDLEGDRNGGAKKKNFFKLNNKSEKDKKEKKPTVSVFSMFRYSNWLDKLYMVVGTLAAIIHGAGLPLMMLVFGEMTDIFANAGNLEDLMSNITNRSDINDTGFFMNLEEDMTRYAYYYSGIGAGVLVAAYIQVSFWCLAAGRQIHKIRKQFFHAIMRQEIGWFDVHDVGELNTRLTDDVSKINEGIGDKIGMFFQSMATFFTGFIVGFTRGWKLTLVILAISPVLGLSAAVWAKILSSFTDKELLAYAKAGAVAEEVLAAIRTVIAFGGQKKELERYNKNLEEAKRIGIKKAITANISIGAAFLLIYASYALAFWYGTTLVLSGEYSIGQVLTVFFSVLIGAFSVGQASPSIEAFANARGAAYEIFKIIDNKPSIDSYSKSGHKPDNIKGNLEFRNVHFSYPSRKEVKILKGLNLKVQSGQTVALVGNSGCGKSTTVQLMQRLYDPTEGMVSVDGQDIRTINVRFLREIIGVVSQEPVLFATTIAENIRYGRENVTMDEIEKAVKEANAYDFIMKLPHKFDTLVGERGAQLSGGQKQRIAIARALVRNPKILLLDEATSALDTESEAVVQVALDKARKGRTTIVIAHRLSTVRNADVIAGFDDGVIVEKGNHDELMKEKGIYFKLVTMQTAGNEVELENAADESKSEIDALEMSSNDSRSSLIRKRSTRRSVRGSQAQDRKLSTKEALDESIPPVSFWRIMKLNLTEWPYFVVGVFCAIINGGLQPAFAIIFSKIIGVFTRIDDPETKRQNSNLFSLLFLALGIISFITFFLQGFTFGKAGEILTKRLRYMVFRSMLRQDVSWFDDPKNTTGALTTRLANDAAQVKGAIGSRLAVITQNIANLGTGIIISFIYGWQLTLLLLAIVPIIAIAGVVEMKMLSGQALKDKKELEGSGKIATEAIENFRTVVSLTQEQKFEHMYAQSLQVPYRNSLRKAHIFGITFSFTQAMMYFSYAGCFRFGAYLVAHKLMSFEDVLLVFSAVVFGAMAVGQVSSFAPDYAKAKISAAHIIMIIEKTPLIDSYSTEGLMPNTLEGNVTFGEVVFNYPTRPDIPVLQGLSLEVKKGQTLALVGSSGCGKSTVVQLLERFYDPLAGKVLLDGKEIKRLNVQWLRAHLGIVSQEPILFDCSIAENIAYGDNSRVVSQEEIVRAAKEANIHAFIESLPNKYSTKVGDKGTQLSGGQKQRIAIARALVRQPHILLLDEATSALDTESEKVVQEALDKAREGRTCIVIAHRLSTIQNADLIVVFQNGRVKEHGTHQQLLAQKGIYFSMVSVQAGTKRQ
T3 sequence (P05177 whole entry): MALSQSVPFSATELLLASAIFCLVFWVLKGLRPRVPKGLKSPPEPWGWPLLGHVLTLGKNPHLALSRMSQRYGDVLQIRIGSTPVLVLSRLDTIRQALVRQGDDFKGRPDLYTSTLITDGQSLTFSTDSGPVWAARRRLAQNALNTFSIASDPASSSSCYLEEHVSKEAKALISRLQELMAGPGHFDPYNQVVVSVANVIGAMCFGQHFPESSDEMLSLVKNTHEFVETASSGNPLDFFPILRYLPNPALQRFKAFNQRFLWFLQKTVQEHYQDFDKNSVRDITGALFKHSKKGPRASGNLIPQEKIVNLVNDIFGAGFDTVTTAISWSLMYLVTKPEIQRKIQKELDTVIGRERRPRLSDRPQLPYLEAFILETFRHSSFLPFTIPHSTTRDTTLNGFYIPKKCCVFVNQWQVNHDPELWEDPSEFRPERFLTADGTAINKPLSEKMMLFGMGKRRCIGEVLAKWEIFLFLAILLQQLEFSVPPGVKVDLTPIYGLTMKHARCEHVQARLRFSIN

The term EC50 denotes the concentration that produces a half-maximal response. The term IC50 denotes the concentration that gives 50% inhibition. Usually Ki stands for the dissociation constant of the complex between target and ligand, obtained from inhibition or displacement. For the molecule `CCOC(=O)C1=C[C@]2(CC)CCCN3CCc4c(n1c1ccccc41)[C@@H]32` [Vinpocetine, ethyl apovincaminate], the “Inhibition of CYP2C9” value in data set [1] was “no activity”; in data set [1] (listed as vinpocetine), “No inhibition”. The “Inhibition of CYP2C19” value in data set [2] is “no activity”; in [2] (listed as vinpocetine), “No inhibition”. The “Inhibition of CYP1A2” value in data set [3] is recorded as “no activity”. The EC50 in [4] is 8 µM. In addition, the “Maximum plasma concentration (Cmax)” value in [5] (oral) was 0.06 µg/mL. In addition, the Oral bioavailability in data set [5] was 6%. For the same molecule, the “Time dependent inhibition (TDI) of CYP3A4” value in [6] is “no TDI”. Besides, the “Time dependent inhibition (TDI) of CYP2D6” value in data set [7] (based on IC50 shift ratio criterion > 1.5) is given as “no TDI”. The IC50 came out at 37 ± 1.6 µM in data set [7] (30 min pre-incubation (TDI assay), read-out: CYP2D6 (recombinant) IC50 Pre-incubation) and 6.5 ± 1.1 µM in data set [7] (co-incubation (reversible inhibition), read-out: CYP2D6 (recombinant) IC50 Co-incubation). Moreover, the entries for the “Type of inhibition of CYP3A4 in HLM” value in [8] and in [8] (listed as vinpocetine) were “competitive inhibition” and “competitive”, respectively. Moreover, the “Type of inhibition of CYP2D6 in HLM” value in [9] (dextromethorphan metabolism) is listed as “non-competitive inhibition”; in data set [9] (dextromethorphan metabolism, listed as vinpocetine) it was “competitive”. The IC50 at 20 min in data set [9] (human, pooled human liver microsomes, pH 7.4, probe dextromethorphan (to dextrorphan), pooled HLM, dextromethorphan as probe substrate) was 19 µM. Besides, the Ki in data set [9] (pooled HLM, dextromethorphan metabolism, Dixon plot) came out at 26 µM.
